The text below walks through data of US20200247815A1, “PYRAZOLYL-CONTAINING TRICYCLIC DERIVATIVE, PREPARATION METHOD THEREFOR AND USE THEREOF” (Jiangsu Hansoh Pharmaceutical Group Co., Ltd., priority 2017, published 2020).

Data set [1] addresses T1, ERK-1 kinase (Homo sapiens, UniProt P27361).
T1 construct: purchased Invitrogen PV3311
In words: Inhibition of ERK-1 kinase activity (LANCE Ultra TR-FRET). The format is biochemical. The settings on record: ERK1 enzyme 0.4 nM, ATP 38.15 μM. The method, then: (§1) The object of this test example is to determine the inhibition effect of the compound on ERK-1 kinase activity. In vitro ERK-1 kinase analysis was carried out by using LANCE Ultra (Perkin Elmer) method. The reaction (reaction system 10 μL) was conducted by adding 2.5 μL of test compound/DMSO (final 4%, V/V, diluted to 10 concentrations (400 nM to 0.02 nM) using a 1:3 dilution scheme), 5 μL of a mixed solution of ERK1 enzyme (Invitrogen, # PV3311, final concentration: 0.4 nM) and substrate Ulight-MBP peptide (Perkin Elmer, # TRF0109-M, final concentration: 0.5 μM) formulated with a kinase buffer (50 mM Hepes pH 7.4, 10 mM MgCl2, 1 mM EGTA, 0.01% Triton X-100, 2 mM DTT) and 2.5 μL of ATP solution (Invitrogen, # PV3227, final concentration: 38.15 μM) formulated with the same buffer successively to a 384-well plate (Perkin Elmer OPTIPLATE™) and mixing well. The reaction mixture was incubated at room temperature for 60 minutes. The reaction was stopped by adding 1× LANCE Detection buffer (PerkinElmer # CR97-100) diluted with ultra-pure water, mM EDTA (Invitrogen #15575038) and 1 nM Eu-anti-p-MBP (PerkinElmer # TRF0201-M) antibody in 10 μL/well. The plate was incubated at room temperature for 60 minutes. Excitation reading was performed on Synergy H1 Hybird Reader, H1MFD (Biotek) with an excitation wavelength of 320 nm. TR-FRET rate was calculated by dividing the acceptor emission signal (signal value at 665 nM) by the Eu donor emission signal (signal value at 615 nM). The inhibition TR-FRET rate of the well treated by the compound was calculated relative to the Max signal (DMSO control) and Min signal (no enzyme added) control wells on the plate {% inhibition rate=100−[(test compound−Min average)]/(Max average−Min average)×100}. The 10 concentrations of the compound after 4-fold dilution of the reaction system were 100 nM to 0.005 nM. Abs_IC50 value was calculated by using GraphPad prism fits percentage inhibition rate and ten-point concentration data in a 4-parameter non-linear logic formula.
Background: Time-resolved FRET reads energy transfer from a long-lived donor to a nearby acceptor.

For data set [2], the target named is T2, ERK-2 kinase (Homo sapiens, UniProt P28482).
T2 construct: purchased Invitrogen PV3313
Description: Inhibition of ERK-2 kinase activity (LANCE Ultra TR-FRET). The class given is biochemical. The settings on record: ERK-2 enzyme 0.08 nM, ATP 38.15 μM. The method, then: as §1, with “ERK-2” for “ERK-1”, “ERK-2” for “ERK1”, “PV3313,” for “PV3311,”, “0.08” for “0.4”, “EGTA” for “EGTA,”, “IX” for “1×”

Data set [3] has as its system pancreatic cancer tumor cell Mia Paca 2. In words: Inhibition of tumor cell proliferation (CellTiter-Glo). The class given is cell-based. Conditions: Homo sapiens, Miapaca-2 cell, 3-7 days. As to the method: The object of this test example is to determine the inhibition effect of the present compound on tumor cell proliferation activity. The inhibition activity of the compound on tumor cell proliferation was determined by CellTiter-Glo method, and the half inhibitory concentration IC50 of the compound for inhibiting cell proliferation activity was obtained, 50-100 μL of tumor cell suspension was inoculated in a 96-well cell culture plate with a density of 1˜5*10^4 cells/ml. The plate was incubated in an incubator for 16˜24 hours (37° C., 5% CO2). Solutions of test compounds at different concentrations obtained by gradient dilution were added to the cells in the plate. The plate was incubated in an incubator for 3-7 days (37° C., 5% CO2), 50˜100 μL of CellTiter-Glo reagent was added to each well. The plate was shaked for 10 minutes, and left to stand at room temperature for 10 minutes. The value of the chemiluminescence signal was determined by a microplate reader. The inhibition rate was calculated from the value of the chemiluminescence signal. IC50 of the compound was obtained by curve fitting based on the inhibition rate at different concentrations.
The inhibition effect of the present compound on pancreatic cancer tumor cell Mia Paca 2 proliferation activity was determined by the test, and the obtained IC50 value is shown in Table 2.

In data set [4] the target is T3, hERG potassium channel (Homo sapiens, UniProt Q12809).
T3 construct: expressed in transfected cells; host or cells: CHO-hERG cells
Description: hERG potassium channel inhibition activity test (Qpatch, CHO-hERG cells). The format is cell-based. The method, then: 4.1.1 CHO-hERG cells were cultured in a 175 cm2 culture flask. After the cell density reached 60˜80%, the culture solution was removed. The cells were washed with 7 mL of PBS once, and dissociated with 3 mL of Detachin.
4.1.2 After completion of dissociation, the cells were neutralized with 7 mL of culture solution. The solution was centrifuged, and the supernate was removed. The cells were resuspended in 5 mL of culture solution. The cell indensity is ensured as […].
Single cell sealing impedance and formation of whole-cell mode were automatically performed by Qpatch instrument. After obtaining the whole-cell recording mode, the cell was clamped at −80 mV. The cell first underwent pre-voltage of −50 mV for 50 msec, then underwent depolarization stimulation at +40 mV for 5 sec, and then underwent repolarization at −50 mV for 5 sec. and then the voltage returned to −80 mV. The cell underwent the stimulation at the voltage every 15 sec, and the data were recorded for 2 min, then extracellular fluid was administrated, and then the data were recorded for 5 min. Then, the administration process begun. The concentration of the test compound started from the lowest concentration, each test concentration was administrated for 2.5 min. At least three cells were tested for each concentration.
4.4.1 20 mM mother liquor of the compound was diluted with extracellular fluid, 5 uL of 20 mM mother liquor of the compound was added with 2495 uL of extracellular fluid to obtain a concentration of 40 uM (500-fold dilution). The solution was subjected to a 3-fold serial dilution with extracellular fluid containing 0.2% DMSO to obtain a required final concentration.
This concentration of DMSO had no effect on hERG potassium channel.
The experimental data was analyzed by XLFit software.
For orientation: Block of hERG is tested as a sign of cardiac risk.

T1 sequence (P27361 whole entry): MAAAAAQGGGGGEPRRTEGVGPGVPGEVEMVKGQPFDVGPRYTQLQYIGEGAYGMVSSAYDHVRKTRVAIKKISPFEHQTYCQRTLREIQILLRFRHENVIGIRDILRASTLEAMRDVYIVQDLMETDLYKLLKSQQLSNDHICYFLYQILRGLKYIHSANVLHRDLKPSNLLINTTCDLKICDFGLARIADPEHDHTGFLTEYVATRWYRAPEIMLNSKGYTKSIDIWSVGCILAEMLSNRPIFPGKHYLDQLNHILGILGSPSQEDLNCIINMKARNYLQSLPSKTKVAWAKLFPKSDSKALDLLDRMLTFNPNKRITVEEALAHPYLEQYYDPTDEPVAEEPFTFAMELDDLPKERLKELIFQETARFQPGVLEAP
T2 sequence (P28482 whole entry): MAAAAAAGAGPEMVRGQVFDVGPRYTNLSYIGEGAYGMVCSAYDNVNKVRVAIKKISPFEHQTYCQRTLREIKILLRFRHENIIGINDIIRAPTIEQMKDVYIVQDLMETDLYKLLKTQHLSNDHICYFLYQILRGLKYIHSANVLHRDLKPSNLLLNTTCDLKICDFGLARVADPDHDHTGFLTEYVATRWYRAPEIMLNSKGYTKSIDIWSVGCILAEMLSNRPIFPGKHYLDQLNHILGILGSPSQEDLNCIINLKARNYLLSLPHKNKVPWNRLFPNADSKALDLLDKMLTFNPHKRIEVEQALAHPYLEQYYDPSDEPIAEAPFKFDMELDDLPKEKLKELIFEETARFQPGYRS
T3 sequence (Q12809 whole entry): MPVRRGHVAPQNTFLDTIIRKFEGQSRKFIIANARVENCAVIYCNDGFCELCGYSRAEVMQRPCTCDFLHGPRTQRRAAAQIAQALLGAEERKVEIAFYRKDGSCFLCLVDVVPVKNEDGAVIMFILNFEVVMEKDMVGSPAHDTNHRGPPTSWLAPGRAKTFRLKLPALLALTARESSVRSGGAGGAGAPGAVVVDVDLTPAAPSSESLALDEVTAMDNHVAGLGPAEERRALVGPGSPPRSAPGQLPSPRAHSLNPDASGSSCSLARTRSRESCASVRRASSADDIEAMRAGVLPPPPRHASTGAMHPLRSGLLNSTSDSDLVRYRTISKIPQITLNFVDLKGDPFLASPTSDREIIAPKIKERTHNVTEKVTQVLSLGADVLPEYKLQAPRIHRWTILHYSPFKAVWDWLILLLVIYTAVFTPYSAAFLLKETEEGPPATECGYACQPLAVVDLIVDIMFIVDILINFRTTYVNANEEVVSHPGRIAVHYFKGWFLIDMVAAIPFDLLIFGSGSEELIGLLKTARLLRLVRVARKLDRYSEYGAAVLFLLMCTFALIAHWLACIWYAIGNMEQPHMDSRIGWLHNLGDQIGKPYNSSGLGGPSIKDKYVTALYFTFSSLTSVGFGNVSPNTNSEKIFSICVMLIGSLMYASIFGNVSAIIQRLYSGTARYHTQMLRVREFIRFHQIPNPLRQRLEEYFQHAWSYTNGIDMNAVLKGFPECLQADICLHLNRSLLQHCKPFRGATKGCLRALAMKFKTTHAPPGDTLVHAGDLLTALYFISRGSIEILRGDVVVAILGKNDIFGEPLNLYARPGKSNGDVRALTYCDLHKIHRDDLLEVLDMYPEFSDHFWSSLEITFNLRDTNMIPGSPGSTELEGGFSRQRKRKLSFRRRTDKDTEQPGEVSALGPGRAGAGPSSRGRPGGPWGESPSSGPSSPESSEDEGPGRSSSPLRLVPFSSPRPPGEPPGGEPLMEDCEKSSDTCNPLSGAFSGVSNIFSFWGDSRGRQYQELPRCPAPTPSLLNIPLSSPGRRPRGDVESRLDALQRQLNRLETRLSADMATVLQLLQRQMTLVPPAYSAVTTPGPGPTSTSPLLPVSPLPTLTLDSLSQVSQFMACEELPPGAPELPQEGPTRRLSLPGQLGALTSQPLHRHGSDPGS

Regarding `COc1cccc([C@@H](C)NC(=O)c2nc3cc4c(-c5ccncc5)n[nH]c4cc3[nH]2)c1` [Example 19, (R)—N-(1-(3-methoxyphenyl)ethyl)-3-(pyridin-4-yl)-1,7-dihydroimidazo[4,5-f]indazole-6-carboxamide], the IC50 in data set [1] was found to be 0.35 nM; in data set [2], 0.2 nM; in data set [3], 159 nM.

For the compound `Cc1cccc([C@@H](C)NC(=O)c2nc3cc4c(-c5ccncc5)n[nH]c4cc3[nH]2)c1` [Example 21, (R)-3-(pyridin-4-yl)-N-(1-(m-tolyl)ethyl)-1,7-dihydroimidazo[4,5-f]indazole-6-carboxamide], the values for the IC50 in data set [1], in data set [2] and in data set [3] were 0.3 nM, 0.17 nM and 59.1 nM, respectively.

In the case of `C[C@@H](NC(=O)c1nc2cc3c(-c4ccncc4)n[nH]c3cc2[nH]1)c1cccc(Cl)c1` [Example 22, (R)—N-(1-(3-chlorophenyl)ethyl)-3-(pyridin-4-yl)-1,7-dihydroimidazo[4,5-f]indazole-6-carboxamide], the IC50 came to 0.26 nM in data set [1], 0.17 nM in data set [2] and 99.4 nM in data set [3].

`O=C(N[C@H](CO)c1cccc(Cl)c1)c1nc2cc3c(-c4ccncc4)n[nH]c3cc2[nH]1` [Example 28, (S)—N-(1-(3-chlorophenyl)-2-hydroxyethyl)-3-(pyridin-4-yl)-1,7-dihydroimidazo[4,5-f]indazole-6-carboxamide]: the IC50 in data set [1] is 0.1 nM; in data set [2] it was 0.1 nM; in data set [3], 202 nM.

As for `Cc1cccc([C@@H](CO)NC(=O)c2nc3cc4c(-c5ccncc5)n[nH]c4cc3[nH]2)c1` [Example 30, (S)—N-(2-hydroxy-1-(m-tolyl)ethyl)-(pyridin-4-yl)-1,7-dihydroimidazo[4,5-f]indazole-6-carboxamide], the IC50 in data set [1] came out at 0.19 nM; in data set [2] it was 0.12 nM; in data set [3], 61.6 nM.

On to `Cc1cc(-c2n[nH]c3cc4[nH]c(C(=O)N[C@H](C)c5ccccc5)nc4cc23)ccn1` [Example 36, (R)-3-(2-methylpyridin-4-yl)-N-(1-phenylethyl)-1,7-dihydroimidazo[4,5-f]indazole-6-carboxamide], for which the IC50 in data set [1] turned out to be 1.08 nM; in data set [2], 1.23 nM; in data set [3], 244 nM.

On to `C[C@@H](NC(=O)c1nc2cc3c(-c4ccncc4)n[nH]c3cc2[nH]1)c1cccc(F)c1` [Example 45, (R)—N-(1-(3-fluorophenyl)ethyl)-3-(pyridin-4-yl)-1,7-dihydroimidazo[4,5-f]indazole-6-carboxamide], for which the IC50 in data set [1] stood at 0.54 nM; in data set [2] it was 0.5 nM; in data set [3], 110 nM.

For `CNC[C@@H](NC(=O)c1nc2cc3c(-c4ccncc4)n[nH]c3cc2[nH]1)c1ccccc1` [Example 50, (S)—N-(2-(methylamino)-1-phenylethyl)-3-(pyridin-4-yl)-1,7-dihydroimidazo[4,5-f]indazole-6-carboxamide], the IC50 in data set [1] is 0.29 nM; in data set [2], 0.17 nM; in data set [3], 55.5 nM.

For the compound `O=C(N[C@H](CNC1CC1)c1ccccc1)c1nc2cc3c(-c4ccncc4)n[nH]c3cc2[nH]1` [Example 54, (S)—N-(2-(cyclopropylamino)-1-phenylethyl)-3-(pyridin-4-yl)-1,7-dihydroimidazo[4,5-f]indazole-6-carboxamide], the results for the IC50 in data set [1], in data set [2] and in data set [3] were 0.52 nM, 0.32 nM and 309 nM, respectively.

Turning to `O=C(Cc1ccccc1)c1nc2cc3c(-c4ccncc4)n[nH]c3cc2[nH]1` [Example 105, 2-phenyl-1-(3-(pyridin-4-yl)-1,7-dihydroimidazo[4,5-f]indazol-6-yl)ethan-1-one], in data set [4], the “Inhibition effect on cardiac hERG potassium channel” value is “no inhibition effect”. Also, the IC50 in data set [4] (CHO-hERG cells, highest test concentration 40 uM, read-out: hERG (inhibition effect on hERG current)) was over 40000 nM.
